According to patent US12391733B2, “Stapled intracellular-targeting antimicrobial peptides to treat infection” (priority 2016, dated 2025):
Like-named read-outs stand apart in the source and are kept apart here. Positions of bridges follow the written chain, without caps; N, C: chain ends. Non-standard residues stand in square brackets, D forms with d. Residues, ends and D or L forms follow the SMILES beside them. R8 = C=CCCCCCC[C@@](C)(N)C(=O)O; S5 = C=CCCC[C@](C)(N)C(=O)O

Experiments:
circular dichroism = conditions: 10 mM phosphate buffer; pH 7.4; ns °C; 100 uM
E. coli = format: cell-based, Escherichia coli; conditions: for Antimicrobial Activity NIC (μg/ml) E. coli: Table 1, microbroth dilution, refined MHB, 20-24 hours at 37° C.
Protocol: (§1) Antimicrobial Activity Assay The following microbroth dilution protocol was adapted to determine the MIC of each peptide. First, Mueller-Hinton broth (MHB) was passed through an anion exchange column to remove polyanionic species and generate refined MHB. This refined broth was then used in the standard microbroth dilution protocol devised by Hancock et al. for 96 well plates. […] Briefly, bacterial cells were grown overnight in refined MHB at 37° C. and then diluted and allowed to grow again for several hours. Serial dilutions of peptide stocks in water (10 μl) were prepared using clear round-bottom polypropylene 96-well plates. Then 90 μl of bacteria in refined MHB was added to give a final inoculum of 5×10^5 CFU/ml. The plates were then covered with porous tape to reduce evaporation, and incubated for 20-24 hours at 37° C.

B. cereus = format: cell-based
Protocol: as §1

MRSA = format: cell-based
Protocol: as §1

P. aeruginosa = format: cell-based
Protocol: as §1

S. Aureus = format: cell-based
Protocol: as §1

[1] = system: human red blood cells (RBCs); format: cell-based; conditions: for % Hemolysis at 50 μg/ml: red cells of human, 1 h
Excerpt: One of the key obstacles that have long impeded the use of AMPs in systemic infections such as sepsis is their tendency to lyse human cells, such as red blood cells (RBCs). Thus, it is critical to minimize hemolytic activity as much as possible to achieve a therapeutic window. […] Of note, in those circumstances where hydrocarbon staples increase hemolytic activity due to increasing hydrophobicity, the alkene moiety can be modified, e.g., by dihydroxylation, to install hydrophilic residues and potentially mitigate hemolysis.
Hemolytic Activity Assay For the determination of hemolytic activity, the following protocol was applied: human blood samples were centrifuged to isolate red blood cells (RBCs), which were then washed and suspended in phosphate-buffered saline to yield a 1% (v/v) suspension. This suspension was then added to serial dilutions of peptide stocks in water in clear round-bottom polypropylene 96-well plates and the plates incubated for 1 hour at 37° C. After incubation, the plates were centrifuged and the supernatant isolated to determine the amount of hemoglobin released using a spectrophotometer (570 nm). The minimum hemolytic concentration (MHC) was determined by assessing the peptide concentration at which there was less than 1% hemoglobin release.

Compound | helicity (circular dichroism) | % Hemolysis at 50 μg/ml [1] | Antimicrobial Activity NIC (μg/ml) E. coli (E. coli) | also measured
CC(C)C[C@H](NC(=O)[C@H](CC(C)C)NC(=O)[C@H](CCCNC(=N)N)NC(=O)[C@H](Cc1c[nH]cn1)NC(=O)[C@@H](NC(=O)[C@H](CCCNC(=N)N)NC(=O)CNC(=O)[C@@H](NC(=O)[C@@H]1CCCN1C(=O)[C@H](Cc1c[nH]c2ccccc12)NC(=O)[C@H](CCC(N)=O)NC(=O)[C@H](CC(C)C)NC(=O)[C@]1(C)CCCC=CCCC[C@](C)(NC(=O)[C@H](CCCNC(=N)N)NC(=O)[C@@H](N)[C@@H](C)O)C(=O)N[C@@H](CO)C(=O)N[C@@H](CCCNC(=N)N)C(=O)N[C@@H](C)C(=O)N1)C(C)C)C(C)C)C(=O)N[C@@H](CCCNC(=N)N)C(=O)N[C@@H](CCCCN)C(N)=O [BFStap(i + 4)11] (H-TR[S5]SRA[S5]LQWPVGRVHRLLRK-NH2; staple 3-7) | 8% | 3.1% |  | Antimicrobial Activity MIC (μg/ml) E. coli (E. coli; Table 2): 6.25 µg/mL; Antimicrobial Activity MIC (μg/ml) B. cereus (B. cereus; Table 2): 25 µg/mL; Antimicrobial Activity MIC (μg/ml) MRSA (MRSA; Table 2): >50 µg/mL; Antimicrobial Activity MIC (μg/ml) P. aeruginosa (P. aeruginosa; Table 2): 12.5 µg/mL; Antimicrobial Activity MIC (μg/ml) S. Aureus (S. Aureus; Table 2): 50 µg/mL; hemolytic activity (in words) [1]: low hemolytic activity
CC(C)C[C@H](NC(=O)[C@H](CC(C)C)NC(=O)[C@H](CCCNC(=N)N)NC(=O)[C@H](Cc1c[nH]cn1)NC(=O)[C@@H](NC(=O)[C@]1(C)CCCC=CCCCCCC[C@@](C)(NC(=O)[C@H](C)NC(=O)[C@H](CCCNC(=N)N)NC(=O)[C@H](CO)NC(=O)[C@H](CO)NC(=O)[C@H](CCCNC(=N)N)NC(=O)[C@@H](N)[C@@H](C)O)C(=O)N[C@@H](CC(C)C)C(=O)N[C@@H](CCC(N)=O)C(=O)N[C@@H](Cc2c[nH]c3ccccc23)C(=O)N2CCC[C@H]2C(=O)N[C@@H](C(C)C)C(=O)NCC(=O)N1)C(C)C)C(=O)N[C@@H](CCCNC(=N)N)C(=O)N[C@@H](CCCCN)C(N)=O [BFStap(i + 7)6] (H-TRSSRA[R8]LQWPVG[S5]VHRLLRK-NH2; staple 7-14) | 7.3% | 9.5% |  | Antimicrobial Activity MIC (μg/ml) E. coli (E. coli): 6.25 µg/mL; Antimicrobial Activity MIC (μg/ml) B. cereus (B. cereus): 12.5 µg/mL; Antimicrobial Activity MIC (μg/ml) MRSA (MRSA): >50 µg/mL; Antimicrobial Activity MIC (μg/ml) P. aeruginosa (P. aeruginosa): 12.5 µg/mL; Antimicrobial Activity MIC (μg/ml) S. Aureus (S. Aureus): 25 µg/mL
CC(C)C[C@@H]1NC(=O)CNC(=O)[C@](C)(NC(=O)[C@H](CCCNC(=N)N)NC(=O)[C@H](CO)NC(=O)[C@H](CO)NC(=O)[C@H](CCCNC(=N)N)NC(=O)[C@@H](N)[C@@H](C)O)CCCCCCC=CCCC[C@@](C)(C(=O)N[C@@H](CCCNC(=N)N)C(=O)N[C@H](C(=O)N[C@@H](Cc2c[nH]cn2)C(=O)N[C@@H](CCCNC(=N)N)C(=O)N[C@@H](CC(C)C)C(=O)N[C@@H](CC(C)C)C(=O)N[C@@H](CCCNC(=N)N)C(=O)N[C@@H](CCCCN)C(N)=O)C(C)C)NC(=O)[C@H](C(C)C)NC(=O)[C@@H]2CCCN2C(=O)[C@H](Cc2c[nH]c3ccccc23)NC(=O)[C@H](CCC(N)=O)NC1=O [BFStap(i + 7)7] (H-TRSSR[R8]GLQWPV[S5]RVHRLLRK-NH2; staple 6-13; N-terminus and C-terminus assumed) | 11.6% | 3.0% | 22.9 µg/mL | 
CC(C)C[C@@H]1NC(=O)CNC(=O)[C@H](C)NC(=O)[C@H](CCCNC(=N)N)NC(=O)[C@H](CO)NC(=O)[C@H](CO)NC(=O)[C@](C)(NC(=O)[C@@H](N)[C@@H](C)O)CCCCCCC=CCCC[C@@](C)(C(=O)N[C@@H](Cc2c[nH]c3ccccc23)C(=O)N2CCC[C@H]2C(=O)N[C@H](C(=O)NCC(=O)N[C@@H](CCCNC(=N)N)C(=O)N[C@H](C(=O)N[C@@H](Cc2c[nH]cn2)C(=O)N[C@@H](CCCNC(=N)N)C(=O)N[C@@H](CC(C)C)C(=O)N[C@@H](CC(C)C)C(=O)N[C@@H](CCCNC(=N)N)C(=O)N[C@@H](CCCCN)C(N)=O)C(C)C)C(C)C)NC1=O [BFStap(i + 7)9] (H-T[R8]SSRAGL[S5]WPVGRVHRLLRK-NH2; staple 2-9; N-terminus and C-terminus assumed) | 0% | 4.3% | 41.7 µg/mL | 
CC(C)C[C@H](NC(=O)[C@H](CC(C)C)NC(=O)[C@H](CCCNC(=N)N)NC(=O)[C@H](Cc1c[nH]cn1)NC(=O)[C@@H](NC(=O)[C@H](CCCNC(=N)N)NC(=O)CNC(=O)[C@@H](NC(=O)[C@@H]1CCCN1C(=O)[C@H](Cc1c[nH]c2ccccc12)NC(=O)[C@H](CCC(N)=O)NC(=O)[C@]1(C)CCCC=CCCCCCC[C@@](C)(N)C(=O)N[C@@H](CCCNC(=N)N)C(=O)N[C@@H](CO)C(=O)N[C@@H](CO)C(=O)N[C@@H](CCCNC(=N)N)C(=O)N[C@@H](C)C(=O)NCC(=O)N1)C(C)C)C(C)C)C(=O)N[C@@H](CCCNC(=N)N)C(=O)N[C@@H](CCCCN)C(N)=O [BFStap(i + 7)10] (H-[R8]RSSRAG[S5]QWPVGRVHRLLRK-NH2; staple 1-8) | 0% | 2.3% | >100 µg/mL | 
